Results reported in patent US5705518A, “Method of activating photosensitive agents” (University of British Columbia, priority 1995, dated 1998).
Read-outs that look alike come from different tables or passages of the source.

What was measured:
[1] = mouse, in vivo, iv; cited from earlier work
[2] = system: M-1 tumor; assay: Comparison PDT with light three hours post injection (FIG. 3), M-1 tumor mouse; conditions: 2.0 mg/kg BPD-MA, 100 J/cm^2, 4 days (FIG. 3)
[3] = system: M-1 tumor; assay: Light dose-response study at 690 nm (FIG. 5); assay type: in vivo, mice; conditions: 2 mg/kg BPD-MA, three hours post injection
Procedure: FIG. 5 illustrates a light dose-response study at 690 nm and with a BPD-MA dose of 2 mg/kg. […] Light exposure took place three hours after the injection of 2 mg/kg BPD-MA.
FIG. 5 summarizes results of a test involving the same mouse-tumor model, in which five different light exposures (50, 75, 100, 125 and 150 J/cm^2) were used three hours post injection with 2 mg/kg BPD-MA. Under this regimen, which is similar to current clinical regimens, 75% of the mice receiving 150 J/cm^2 and 50% of the mice receiving 125 J/cm^2 were tumor free at 14 days.

[4] = system: M-1 tumor cells; assay: Dose ranging study: drug dose, light dose and post injection interval, M-1 tumor-bearing mice; assay type: in vivo, DBA/2 mice
[5] = system: M-1 (murine rhabdomyosarcoma) tumor; assay: Pilot study of shorter post injection intervals: PDT of M-1 tumor-bearing mice, light 15 min after liposomal BPD-MA; assay type: in vivo, DBA/2 mice; conditions: light 15 min post injection
Procedure: Liposomal BPD was dried and stored frozen at -20° C. in 1 ml aliquots. The appropriate number of aliquots were thawed immediately before use and diluted with 5% dextrose in water for injection into the animals.
Male DBA/2 mice (7-11 weeks old; Charles River Laboratories, St. Constant, Quebec, Canada) were used in these studies, unless otherwise specified. Shaving and depilation removed the hair very effectively from appropriate body surfaces. The mice were shaved and depilated with a commercially available depilator (Nair®) at least one day before being used in the experiments. Following injection the mice were kept in the dark for various lengths of time, as described below. Before and after the experiments the mice were kept in an animal facility with 12 hours of light and 12 hours of dark daily.
An argon pumped dye laser, whose power source was obtained from Spectra Physics (Series 2000, Mountain View, Calif.) and whose 5W argon ion pumped dye laser was obtained from Coherent (Model 599, Palo Alto, Calif.) was used to deliver a columnated beam of light having a wavelength of 690 (±3) nm. The argon laser was aimed at the skin to irradiate the tumor. The time of light exposure was varied to give different light doses, such as 50, 75 and 100 Joules/cm^2.
DBA/2 mice (weight 22±1 g) were used in this study. […]

[6] = system: M-1 tumor; assay: Anti-tumor efficacy BPD-MA dose-response study (FIG. 4); assay type: in vivo, mice; conditions: 2.0 mg/kg (only group of 0.5, 1.0, 1.5, 2.0 mg/kg); 150 J/cm^2; three hours post injection
Procedure: FIG. 4 illustrates an anti-tumor efficacy dose-response study for BPD-MA, liposomal formulation. […] Light exposure took place three hours after injection.
For comparison, FIGS. 4 and 5 are provided. FIG. 4 summarizes results of a test involving the same mouse-tumor model, in which four different BPD-MA doses were given (0.5, 1.0, 1.5, and 2.0 mg/kg). Light exposure was 150 J/cm^2, administered after a post injection interval of three hours of darkness. Under this regimen, which is similar to current clinical regimens, the only group that was over 50% tumor free at 14 days was that group of mice receiving 2.0 mg/kg.

[7] = mouse, in vivo, iv, cited from earlier work
[8] = system: subcutaneous rat gliosarcomas; conditions: in vivo; cited from earlier work
[9] = human, in vivo; cited from earlier work
[10] = system: bladder cancer; conditions: human, in vivo, cited from earlier work
[11] = 0.5 mg/kg, 50 J/cm^2, 30 min post injection, 2 mice, interim
[12] = 0.5 mg/kg, 75 J/cm^2, 15 min post injection, 2 mice, interim
[13] = 0.5 mg/kg, 100 J/cm^2, 15 min post injection, 5 mice, interim
[14] = 1.0 mg/kg, 50 J/cm^2, 15 min post injection, 4 mice, interim
[15] = 1.0 mg/kg, 50 J/cm^2, 30 min post injection, 5 mice, interim
[16] = 1.0 mg/kg, 75 J/cm^2, 15 min post injection, 5 mice, interim
[17] = 1.0 mg/kg, 100 J/cm^2, 15 min post injection, 4 mice, interim

C=Cc1c(C)c2cc3nc(cc4[nH]c(cc5nc(cc1[nH]2)C1(C)C5=CC=C(C(=O)OC)C1C(=O)OC)c(C)c4CCC(=O)O)C(CCC(=O)OC)=C3C (stereo not drawn) [BPD-MB]
Tumor-skin ratios [1]: favorable

benzoporphyrin derivative monoacid ring A [BPD-MA]
survival of mouse [2]: alive
tumor eradication [2]: the tumor was eradicated
tumor palpability [2]: The tumor was not palpable
tumor free at 14 days ([3]; 125 J/cm^2): 50%
tumor free at 14 days ([3]; 150 J/cm^2): 75%
mice that developed tumors ([4]; 0.5 mg/kg BPD-MA, 50 J/cm^2, 30 minutes post injection): all mice developed tumors
tumor free at day 7 ([4]; 0.5 mg/kg BPD-MA, 100 J/cm^2, 15 minutes post injection, day 7, five mice): all were tumor free at day 7
mice that developed tumors by day 14 ([4]; 0.5 mg/kg BPD-MA, 100 J/cm^2, 15 minutes post injection, day 14): Three of five mice
# Tumor-Free, Day 7 ([4]; 0.5 mg/kg, 50 J/cm^2, 1 min post injection, 3 mice, interim): 3 mice
# Tumor-Free, Day 7 ([4]; 0.5 mg/kg, 50 J/cm^2, 15 min post injection, 2 mice, interim): 2 mice
# Tumor-Free, Day 7 [4, 11]: 0 mice
# Tumor-Free, Day 14 [4, 11]: 0 mice
# Tumor-Free, Day 7 column (observations on Day 2 post exposure) ([4]; 0.5 mg/kg, 75 J/cm^2, 1 min post injection, 2 mice, observed Day 2, interim): 2 mice
# Tumor-Free, Day 7 [4, 12]: 2 mice
# Tumor-Free, Day 14 [4, 12]: 2 mice
# Tumor-Free, Day 7 ([4]; 0.5 mg/kg, 100 J/cm^2, 1 min post injection, 3 mice, interim): 3 mice
# Tumor-Free, Day 7 [4, 13]: 5 mice
# Tumor-Free, Day 14 [4, 13]: 2 mice
# Tumor-Free, Day 7 ([4]; 0.5 mg/kg, 100 J/cm^2, 30 min post injection, 2 mice, interim): 2 mice
# Tumor-Free, Day 7 ([4]; 1.0 mg/kg, 50 J/cm^2, 1 min post injection, 4 mice, interim): 4 mice
# Tumor-Free, Day 7 [4, 14]: 4 mice
# Tumor-Free, Day 14 [4, 14]: 4 mice
# Tumor-Free, Day 7 [4, 15]: 4 mice
# Tumor-Free, Day 14 [4, 15]: 4 mice
# Tumor-Free, Day 7 [4, 16]: 5 mice
# Tumor-Free, Day 14 [4, 16]: 4 mice
# Tumor-Free, Day 7 ([4]; 1.0 mg/kg, 75 J/cm^2, 30 min post injection, 5 mice, interim): 4 mice
# Tumor-Free, Day 7 [4, 17]: 4 mice
# Tumor-Free, Day 14 [4, 17]: 4 mice
tumor free, animals followed to day 14 ([4]; all regimens of Table 1, day 14, interim): most are tumor free
survival of mouse ([5]; 0.5 mg/kg BPD-MA, 75 J/cm^2, 24 hours (FIG. 2)): alive
survival of mouse ([5]; 1 mg/kg BPD-MA, 100 J/cm^2, 48 hours (FIG. 1)): alive
tumor free at 14 days [6]: over 50%
BPD-MA in the tumor that was active ([7]; 3 h): 100%
BPD-MA in the tumor that was active ([7]; 24 h): 39%
degradation in livers and kidneys compared with tumors [7]: Both livers and kidneys degraded BPD-MA more quickly than did the tumors

hematoporphyrin derivative
safety of direct injection compared with parenteral injection [8]: direct injection appeared to be safer than parenteral injection

porfimer sodium
duration of photosensitivity (patient warning) [9]: six
relationship of photosensitivity to injected drug dose [9]: no apparent relationship of photosensitivity to injected drug dose
time of occurrence of skin phototoxicity ([10]; iv, 2 mg/kg): ≤ 10 days
patients with irritative bladder symptoms [10]: Five
